Assay results as given in the NIST ThermoML archive (doi:10.1016/j.tca.2015.03.027).
± gives the expanded uncertainty stated by the source.

Legend:
[1] = Molar enthalpy of transition or fusion; settings: Crystal; DSC
[2] = Crystal; DTA
[3] = molar heat capacity at constant pressure; settings: 290 K; 101.33 kPa; Crystal; Small sample (50 mg) DSC
[4] = molar heat capacity at constant pressure; wn = mass fraction of the nth substance listed; settings: 320 K; 96 kPa; Liquid; Small sample (50 mg) DSC; w1 = 0.649

## O.O.O.O.O.O.[Br-].[Br-].[Ca+2] [calcium bromide hexahydrate]
[1]
  Molar enthalpy of transition or fusion: 10.5 ± 0.335 kcal/mol
[2]
  Normal melting temperature: 34.00 ± 2 °C
[3]
  molar heat capacity at constant pressure: 363.41 ± 37 J/K/mol

## [Br-].[Br-].[Ca+2] [calcium bromide] + O
[4]
  molar heat capacity at constant pressure: 75.67 ± 7.5 J/K/mol
